The record followed here is patent US9150482B2 (Development Center for Biotechnology, priority 2012, dated 2015).

One assay has as its target T1, GLP-1 receptor (Homo sapiens, UniProt P43220).
T1 construct: expressed in transfected cells; host or cells: U2OS (human bone osteosarcoma)
Put plainly: Receptor arrestin translocation assay (GLP-1 potentiator activity, U2OS cells transfected with GLP-1 receptor gene). The class given is cell-based. As to the method: For example, these cells may be plated as monolayer on a test plate (e.g., a 384-well plate). The cells, for example, may be plated at a density of 4000 cells per well. The test sample concentrations may be 0.2-0.000002 mg/ml. The test volumes may be 25 microliter, and the test time may be 1 hr.
GLP-1 receptors are G-protein coupled receptors with seven transmembrane domains. After activation by hormones or neural stimulants, many G-protein coupled cell surface receptors will internalize from the cell surface to the cytoplasm in endocytosis responses. […] This process may be used to assay the test samples. The extents of receptor endocytosis are closely related to the concentrations of the test samples—the higher the sample concentrations, the stronger the endocytosis responses. Because the densities of cell surface receptors are fixed, when the sample concentrations reach a high number, the extents of endocytosis responses would not increase with increasing sample concentrations, i.e., the response reaches saturation. Based on the concentrations and saturation measurements, one can determine the receptor binding affinities of the test samples.
After activation of G-protein coupled receptors, the receptors are typically desensitized or inactivated. Arrestin is involved in such desensitization or inactivation processes. That is, arrestin will be recruited to the GPCR to desensitize or inactivate the receptors. Therefore, monitoring the translocation of GFP-tagged arrestin from the cytosol to the activated GPCRs on the plasma membrane would allow one to measure the binding of test compounds to the receptor target. (Hudson et al., “High-content screening of know G protein-coupled receptors by arrestin translocation,” Methods Enzymol., 414: 63-78 (2006)).
Using this assay, the following test samples have been assessed: (a) compound 1 (MW 318), (b) compound 2 (MW 318), (c) compound 3 (MW 334), (d) compound 5 (MW 304), (e) compound 6 (MW 376). […] When the sample concentrations reach certain high concentrations, the extents of endocytosis responses will not further increase with increasing sample concentrations because the responses have reached saturation.
Based on the binding curves and saturation measurements as a function of test sample concentrations, the receptor affinities of the test samples can be determined.

A further assay concerns RINm5F cells. In words: Insulin secretion tests in rat pancreatic beta cells RINm5F. The assay is classed as cell-based. The following applies: 2 hours, FIG. 4; for insulin secretion with exendin-4: 16 mM glucose, ELISA; for effect on insulin secretion in the absence of exendin-4: no exendin-4, 16 mM glucose. As to the method: Rat pancreatic beta cell line RINm5F was purchased from the Food Industry Research and Development Institute (Hsinchu, Taiwan), No. BCRC 60410; source: ATCC CRL-11 605. The cells are cultured in 10% FBS RPMI-1640 medium, in a constant temperature CO2 incubator, under 5% CO2, 37° C. and 95% humidity, for subsequent experiments.
To each 96-well plate, add the RINm5F cells (8×10^5 cells/well) and culture the cells for 2 days before the experiments. Before testing, remove the culture medium. To each well in the 96-well plates, add 100 ul of KRPH buffer (136 mM NaCl, 4.8 mM KCl, 1.2 mM CaCl2, 1.2 mM KH2PO4, 1.2 mM MgSO4, 5 mM NaHCO3, 10 mM HEPES), 2.8 mM D-glucose, 0.2% bovine serum albumin, pH 7.4, placed in a CO2 incubator at 37° C. for 30 minutes, to allow the pancreatic islet cells to acclimate to the medium change (from RPMI 1640 to KRPH buffer). Remove the 96-well plates from the incubator. […] Incubate the cells in KRPH buffer and glucose (KRPH +0.2% BSA, 16 mM glucose) containing culture medium for 2 hours to allow for insulin secretion by the islet beta cells under glucose stimulation. The supernatants from the incubation are collected and the concentrations of insulin released in the wells are assayed using ELISA. Various insulin ELISA kits are available from commercial sources, such as Calbiotech (Spring Valley, Calif.), Crystal Chem., Inc. (Downers Grove, Ill.), and Mercodia (Uppsala, Sweden).
Two days after inoculating RINm5F cells, about 8×10^5 cells/well in 96-well plates, add the active ingredients, compounds 1, 2, and 3, from wild ginger flower 95% ethanol extracts, to the cells. […] After 2 hours, the insulin contents in the supernatants are assessed using insulin ELISA kits.
(In general: An ELISA detects its analyte on a solid surface through an enzyme-linked reagent.)

The subject of another assay is normal mice. In words: Intraperitoneal glucose tolerance test (IPGTT) in normal mice. The class given is in vivo, C57BL/6J mice. The following applies: for hypoglycemic effects: oral, normal mice IPGTT; for Blood glucose concentration: mean±SEM. The protocol:
In this example, in vivo IPGTT is used to validate the blood glucose lowering activity of compound 1 (purity 70%). Twenty-four (24) six weeks old C57BL/6J mice are fed normal diets in an environment of 12/12 light-dark cycles and a constant temperature controlled at 24±2° C. with an unlimited supply of water and food. The mice are divided into four groups of six each, including a control group and three compound 1 (purity 70%) groups. The three compound 1 groups are respectively given orally compound 1 at dosages of 40 mg/Kg, 60 mg/Kg, and 80 mg/Kg. Mice fasted overnight are allowed to eat for 1 hour. After feeding, wait for another hour before giving the test drugs. Thirty (30) minutes after drug administration, glucose at a dose of 1.5 g/kg body weigh is injected intraperitoneally. Blood glucose levels are measured before the glucose injection (0 minutes), as well as at 30, 60 and 90 minutes after the glucose injection, to observe the blood glucose level change curves.
As shown in FIG. 5 and summarized in the Table below, data are expressed as mean±standard error (SEM). P values are calculated using the t test in the Sigma statistical software, wherein p<0.05 is considered significant and marked as *; p<0.01 is considered highly significant and is marked as **; and p≦0.001 is considered extremely significant and marked as ***.

Structures are written as SMILES. Where two headings read alike, the source gives them in different places. Marks after values point to notes of the source that are not given here.

T1 sequence (P43220 24-463, species assumed): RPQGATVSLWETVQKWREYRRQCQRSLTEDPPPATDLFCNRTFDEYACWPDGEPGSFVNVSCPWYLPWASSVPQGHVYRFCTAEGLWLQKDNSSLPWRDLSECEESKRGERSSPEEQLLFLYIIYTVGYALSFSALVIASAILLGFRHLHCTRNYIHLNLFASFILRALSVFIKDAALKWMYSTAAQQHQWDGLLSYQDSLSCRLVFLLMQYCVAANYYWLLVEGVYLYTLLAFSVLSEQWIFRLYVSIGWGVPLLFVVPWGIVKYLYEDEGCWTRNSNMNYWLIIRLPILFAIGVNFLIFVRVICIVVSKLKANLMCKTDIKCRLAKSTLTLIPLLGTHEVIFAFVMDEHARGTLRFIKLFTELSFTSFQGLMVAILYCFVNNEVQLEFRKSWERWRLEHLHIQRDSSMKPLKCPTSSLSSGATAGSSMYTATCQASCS

As for `C=C1CCC2C(C)(C)CCC[C@]2(C)[C@H]1C/C=C(/C=O)CC(OCC)OCC` (stereo partly drawn) [Compound 6, (E)-15,15-diethoxylabda-8(17),12-dien-16-al], the EC50 (usually the concentration giving half of the maximal effect) on GLP-1 receptor (read-out: EC50 (converted)) was 11.6 µM.
As for `C=C1CCC2C(C)(C)CCCC2(C)C1C1C=C(C=O)CC(O)OO1` (stereo not drawn) [Compound 3, Coronarin B], the EC50 at GLP-1 receptor (read-out: EC50 (converted)) was 0.196 µM. Moreover, the “GLP-1 potentiator activity (in words)” value at GLP-1 receptor (summary of FIG. 3 results) is on record as “most potent”. The “insulin secretion with exendin-4” value with RINm5F cells (exendin-4 5 nM) was “stimulate more insulin secretions”. For the same compound, the “effect on insulin secretion in the absence of exendin-4” value (from here on “effect on insulin secretion”) with RINm5F cells was “substantially abolished”.
Regarding `C=C1CCC2C(C)(C)CCC[C@]2(C)C1C1C=C(C=O)CC(O)O1` (stereo partly drawn) [Compound 2, 11-hydroxy-8(17),12(E)-labdadien-15,16-dial 11,15-hemiacetal], the EC50 at GLP-1 receptor (read-out: EC50 (converted)) is 13.9 µM. Further, in the assay with RINm5F cells (exendin-4 5 nM), the “insulin secretion with exendin-4” value is “stimulate more insulin secretions”. For the same compound, in the assay on RINm5F cells, the “effect on insulin secretion” value is reported as “substantially abolished”.
In the case of `C=C1CCC2C(C)(C)CCC[C@]2(C)[C@H]1C/C=C(/C=O)CCO` (stereo partly drawn) [Compound 5, (E)-labda-8(17),12-diene-15-ol-16-al], at GLP-1 receptor (read-out: EC50 (converted)), the EC50 is 8.14 µM.
As for `CC1(C)CCC[C@]2(C)[C@H]3CC=C(C=O)C[C@@H](O)[C@]3(C=O)CC[C@@H]12` [Compound 1, Galanal B], at GLP-1 receptor (GLP-1 4-8 nM constant, U2OS cells expressing GLP-1R, FIG. 3), the concentration for a half-maximal effect (EC50) was 6.603 µg/mL. In the assay with RINm5F cells (exendin-4 2 nM), the “insulin secretion with exendin-4” value was “stimulate more insulin secretions”. Moreover, the “effect on insulin secretion” value with RINm5F cells is recorded as “substantially abolished”. Besides, the hypoglycemic effects in the assay with normal mice (40 mg/Kg group) is 41%; in the assay on normal mice (60 mg/Kg group) it was 45%; with normal mice (80 mg/Kg group), 71%. In addition, the Blood glucose concentration is 120.5 ± 3.8 mg/dL in the assay with normal mice (40 mg/kg oral, compound 1 purity 70%, 0 minute (before glucose injection)); 168.2 ± 3.0** mg/dl with normal mice (40 mg/kg oral, purity 70%, 30 minute after glucose 1.5 g/kg i.p.); 127.0 ± 4.4 mg/dL in the assay on normal mice (40 mg/kg oral, purity 70%, 60 minute after glucose); 117.3 ± 3.4 mg/dL with normal mice (40 mg/kg oral, purity 70%, 90 minute after glucose); 121.5 ± 3.7 mg/dL in the assay with normal mice (60 mg/kg oral, purity 70%, 0 minute (before glucose injection)); 169.2 ± 3.6** mg/dl in the assay on normal mice (60 mg/kg oral, purity 70%, 30 minute after glucose). The Blood glucose concentration was 128.0 ± 4.0 mg/dL with normal mice (60 mg/kg oral, purity 70%, 60 minute after glucose); 111.3 ± 2.9* mg/dl in the assay with normal mice (60 mg/kg oral, purity 70%, 90 minute after glucose); 120.8 ± 3.7 mg/dL in the assay with normal mice (80 mg/kg oral, purity 70%, 0 minute (before glucose injection)); 154.0 ± 2.5*** mg/dl in the assay with normal mice (80 mg/kg oral, purity 70%, 30 minute after glucose); 120.3 ± 1.8** mg/dl in the assay on normal mice (80 mg/kg oral, purity 70%, 60 minute after glucose); 106.7 mg/dL in the assay on normal mice (80 mg/kg oral, purity 70%, 90 minute after glucose).
